We go through two compounds from publication PMC7984888, “Inhibitory Activity of Pyrroloisoxazolidine Derivatives against Chlamydia trachomatis” (BioMed Research International, 2021).

The test system of assay [1] is Chlamydia trachomatis serovar L2 (strain 434/Bu). Nature of the assay: Infectious progeny inhibition assay, C. trachomatis L2. Type of assay: cell-based. Here is the method: (§1) Chlamydia trachomatis serovars D (strain UW-3/CX) and L2 (strain 434/Bu) were purchased from ATCC. HeLa cells purchased from ATCC were routinely cultured in DMEM supplemented with 10% heat-inactivated FBS (Sigma-Aldrich) and 10 μg/mL gentamicin at 37°C in a humidified atmosphere of 5% and were used for chlamydial propagation and cell culture experiments. EBs were purified by Renografin density gradient and stored in sucrose-phosphate-glutamate (SPG) buffer at -80°C [20]. A mouse polyclonal anti-MoPn (C. muridarum strain Nigg II) antibody, which was produced in our laboratory and cross-reacting with C. trachomatis D and L2, was used as a primary antibody for both stains detection.
(§2) Cell monolayers seeded onto coverslips in a 24-well plate were infected with C. trachomatis at a multiplicity of infection (MOI) of 0.2 inclusion-forming units (IFU) per cell. Unless noted, individual compound was added into culture medium at indicated concentrations simultaneously at the time of inoculation. 0.5% DMSO was used as negative control and 11.25 μM tetracycline (Sigma-Aldrich) as positive control. For C. trachomatis D, an additional centrifugation (900 × g at room temperature for 1 h) was applied to facilitate the infection. At 36 hours postinfection (hpi), infected cells were fixed by precooled methanol and then subjected to sequential staining processed with a primary antibody and a FITC-conjugated secondary antibody. Evans blue was used as cytoplasm counterstain. Images were shot by an Olympus IX51 fluorescence microscope.
(§3) Cells monolayers seeded in 48-well plate were infected and treated with chemicals as above. After incubation for 36 hours, infected cells were washed twice, scraped off, and lysed by sonication to release the infectious progeny EBs. Then the lysates were used to reinfect fresh cell monolayers grown in 96-well plate following 1 : 10 serial dilution. The inclusion counts were obtained by immunofluorescence staining as above to calculate the number of infectious progeny EBs in each sample. Percent inhibition was calculated based on EB counts in compound-treated samples relative to DMSO-treated negative control.
(§4) Data from the three independent experiments were presented as mean ± standard deviations (SD) and were subjected to pairwise Student's t-tests. p < 0.05 and p < 0.01 are considered statistically significant and statistically highly significant, respectively. The IC50 values, defined as the concentration of compound at which the generation of infectious progeny EBs was reduced by 50% relative to negative control, were calculated by nonlinear regression from percent inhibition data using the GraphPad Prism 5 software, and presented as mean (95% confidence interval).

Assay [2] concerns Chlamydia trachomatis serovar D (strain UW-3/CX). In words: Infectious progeny inhibition assay, C. trachomatis D. Type of assay: cell-based. The following applies: generation of infectious progeny EBs in HeLa cells, MOI 0.2, 36 hpi, 1 to 32 μM, read-out: IC50 (μM) Mean (95% confidence interval) Ct D. How it is done: as §1, §2, §3, §4
Assay [3] concerns C. trachomatis L2. In words: Host cell pretreatment assay. Type of assay: cell-based, Chlamydia trachomatis. The settings on record: 2, 8 and 32 μM, 37°C, 1 h (also 4 h) prior to infection. Here is the method:
Cells seeded in 48-well plate were incubated with 2, 8, or 32 μM individual compound at 37°C for indicated times. After twice washing with SPG to remove residual compound, cells were infected with EBs at an MOI of 0.2. At 36 hpi, the inclusion count in each well was determined by immunofluorescence staining as above.
Chlamydia trachomatis has a unique EB/RB biphasic life cycle, which offers the infection steps and the intracellular proliferation period for therapeutic intervention. To explore whether the compounds affected the chlamydial infection steps, the HeLa cells or EBs were pretreated with compound prior to infection, and then the influence on EB entry efficiency was analyzed by counting inclusion numbers. Due to the relative easier for culture and shorter developmental cycle, C. trachomatis L2 is commonly represented as a laboratory model for C. trachomatis in cell culture research and is picked for our subsequent mechanism study.
Figure 3 Host cells were not involved in the compounds' antichlamydial activity. HeLa cells were incubated with 2, 8, or 32 μM compound 1 (a) or 2 (b) at 37°C for 1 or 4 h. After washes, cells were infected with EBs. At 36 hpi, the inclusion was counted as described in “Materials and Methods.” Data are presented as mean ± SD of three independent assays.

In assay [4] the test system is C. trachomatis L2. In words: Later treatment assay. The following applies: 2, 8 or 32 μM, progeny EBs at 36 hpi, compared with 0 hpi sample. Type of assay: cell-based, Chlamydia trachomatis. Here is the method:
HeLa cells seeded in 48-well plate were infected with C. trachomatis L2 at an MOI of 0.2 and were treated with 2, 8, or 32 μM of compound at 0, 2, 12, and 24 hpi. At 36 hpi, cells were collected, and the production of infectious progeny EBs was determined as described above. Percent inhibition was calculated based on progeny EB count in compound-treated samples relative to DMSO-treated negative control.  Figure 5 Later treatment assay. (a) HeLa cells infected with C. trachomatis L2 were treated with 2, 8, or 32 μM individual compound at 0, 2, 12, or 24 hpi. The production of progeny EBs was determined at 36 hpi. (b–d) Percent inhibition of progeny EBs was calculated based on data in compound-treated samples relative to DMSO-treated control. Data are presented as mean ± SD of three independent assays. ∗∗p < 0.01, compared with each 0 hpi positive control sample by Student's t-tests.

For assay [5], the system named is C. trachomatis L2. Nature of the assay: Withdrawal assay. Type of assay: cell-based, Chlamydia trachomatis. The settings on record: progeny EBs at 36 hpi, compared with 36 hpi sample. How it is done: HeLa cells seeded in 48-well plate were infected with C. trachomatis L2 at an MOI of 0.2 and simultaneously treated with 2, 8, or 32 μM of compound. At 2, 12, 24, and 36 hpi, infected cells were washed twice to remove residual inhibitor, and fresh medium was added. At 36 hpi, the production of infectious progeny EBs and percent inhibition data were determined as above.  Figure 6 Withdrawal assay. (a) HeLa cells infected with C. trachomatis L2 were simultaneously treated with 2, 8, or 32 μM individual compound. The compound was removed at 2, 12, 24, or 36 hpi, and the production of progeny EBs was determined at 36 hpi. (b–d) Percent inhibition of progeny EBs was calculated based on data in compound-treated samples relative to DMSO-treated control. Data are presented as mean ± SD of three independent assays. ∗p < 0.05, ∗∗p < 0.01, compared with each 36 hpi positive control sample by Student's t-tests.

Where [6] appears, read: Chlamydia trachomatis, HeLa, generation of infectious progeny EBs in HeLa cells, MOI 0.2, 36 hpi, 1 to 32 μM, read-out: IC50 (μM) Mean (95% confidence interval) Ct L2.
Where [7] appears, read: Chlamydia trachomatis, text statements over both strains (L2 and D), infectious progeny EBs, read-out: IC50 values, statement covering both C. trachomatis L2 and D.
Where [8] appears, read: generation of infectious progeny EBs in HeLa cells, MOI 0.2, 36 hpi, 1 to 32 μM, read-out: IC50 (μM) Mean (95% confidence interval) Ct L2.

Like-named read-outs stand apart in the source and are kept apart here.

Usually IC50 stands for the concentration at which inhibition is half-maximal. As to `Clc1ccc(N2C(c3ccccc3)CC3C(c4ccccc4)N(c4ccccc4)OC32)cc1` (centres unmarked) [Compound 2], the IC50 in assay [1] (setting [6]) is under 10 µM; in assay [1] (setting [7]), 7.25 to 9.73 µM; in assay [1] (setting [8]) it was 8.69 µM; in assay [2] (Chlamydia trachomatis, HeLa), under 10 µM; in assay [2] it was 9.73 µM. The “Formation of chlamydial inclusions after pretreatment of HeLa cells” value in the assay on C. trachomatis L2 [3] is recorded as “did not reduce”. Besides, the “Antichlamydial activity when chemical was added at 24 hpi” value in the assay with C. trachomatis L2 [4] is on record as “dramatically dropped”. In the assay on C. trachomatis L2 [4], the “Antichlamydial activity when chemical was added before 12 hpi” value is listed as “maintained”. In addition, the “Inhibitory effect when chemical was removed after 24 hpi” value with C. trachomatis L2 [5] is given as “relatively well preserved”. In addition, the “Inhibitory effect when chemical was removed before 12 hpi” value in the assay with C. trachomatis L2 [5] was “significantly reduced”.

In the case of `c1ccc(C2C3CC(c4ccccc4)N(c4ccccc4)C3ON2c2ccccc2)cc1` (centres unmarked) [Compound 1], the IC50 is under 10 µM in assay [1] (setting [6]); 7.25 to 9.73 µM in assay [1] (setting [7]); 7.25 µM in assay [1] (setting [8]); under 10 µM in assay [2] (Chlamydia trachomatis, HeLa); 9.31 µM in assay [2]. Moreover, in the assay on C. trachomatis L2 [3], the “Formation of chlamydial inclusions after pretreatment of HeLa cells” value is listed as “did not reduce”. For the same compound, the “Antichlamydial activity when chemical was added at 24 hpi” value in the assay with C. trachomatis L2 [4] is reported as “dramatically dropped”. For the same compound, the “Antichlamydial activity when chemical was added before 12 hpi” value in the assay on C. trachomatis L2 [4] is on record as “maintained”. The “Inhibitory effect when chemical was removed after 24 hpi” value in the assay on C. trachomatis L2 [5] is listed as “relatively well preserved”. Moreover, in the assay with C. trachomatis L2 [5], the “Inhibitory effect when chemical was removed before 12 hpi” value is on record as “significantly reduced”.
